Holding throughout (assay type): in vivo
The subject of assay [1] is monoamine oxidase enzyme. Put plainly: MAO inhibition in mouse brain slices after intraperitoneal injection: deamination of [3H]tyramine. To be noted: for ED50: deamination of tyramine, effective dose for 50 % inhibition, 1 h after adm.; for inhibition of the MAO activity against tyramine (in words): mouse, in vivo. From the text:
(§1) It is not possible by experimental means to induce depressions in laboratory animals. In order to evaluate a possible antidepressive effect of new substances biochemical-pharmacological test methods must be resorted to. One such method, which seems to give good indication of the potential antidepressive effects of the test substances, is a test for monoamine oxidase enzyme inhibiting activity. The deamination of [^3H]phenethylamine, [^3H]tyramine, and [^14C]-5-hydroxytryptamine by brain slices was determined according to the following method.
(§2) Slices (100 mg) of the central part of the mouse brain including hypothalamus, thalamus, and midbrain were incubated for 5 min with 1 x 10^-7 M of the labeled substrate in 2.0 ml of Krebs-Henseleit's buffer, pH 7.4, containing […] of glucose, The slices were then homogenized in an all-glass homogenizer with 1.0 ml of 1 N HCl containing carrier amounts ([…]) of the nonlabeled amine and its deaminated acid product. An aliquot of 1.1 ml of a brain homogenate in 10 vol of 1 N HCl containing the substrate and product carriers was added to 0.5 ml of the incubation medium. The brain homogenate was added in order to facilitate the extraction of tyramine and 5-HT. The acid and neutral products were extracted into 6.0 ml of ethyl acetate by vigorous shaking for 10 s. After centrifugation, 4.0 ml of the organic phase was taken for determination of radicactivity, The remaining ethyl acetate was removed; the water phase was made alkaline with solid sodium carbonate and 1.0 ml of 0.5 M borate buffer, pH 10. The amine was then extracted into 6.0 ml of ethyl acetate and 4.0 ml of the organic phase was taken for the assay. The deamination of [^3H]tyramine and [^14C]-5-HT was determined simultaneously by utilizing the double-labeling technique. (S.B. Ross, A.L. Renyi, and S.-O. Ögren, Eur. J. Pharmacol., 17, 107 (1972)).
(§3) Inhibition of the MAO activity in the brain slices was determined 1 h after the intraperitoneal injection of the test compound. The inhibition was expressed in percent and calculated on the total formation of acid and neutral products formed in the brain slices of animals treated with the test compounds or with saline.

Assay [2] has as its target T1, monoamine oxidase enzyme (Mus musculus, UniProt Q64133).
T1 construct: from tissue; host or cells: mouse brain slices (hypothalamus, thalamus, midbrain), ex vivo after i.p. dosing
T1 sequence (Q64133 1-526): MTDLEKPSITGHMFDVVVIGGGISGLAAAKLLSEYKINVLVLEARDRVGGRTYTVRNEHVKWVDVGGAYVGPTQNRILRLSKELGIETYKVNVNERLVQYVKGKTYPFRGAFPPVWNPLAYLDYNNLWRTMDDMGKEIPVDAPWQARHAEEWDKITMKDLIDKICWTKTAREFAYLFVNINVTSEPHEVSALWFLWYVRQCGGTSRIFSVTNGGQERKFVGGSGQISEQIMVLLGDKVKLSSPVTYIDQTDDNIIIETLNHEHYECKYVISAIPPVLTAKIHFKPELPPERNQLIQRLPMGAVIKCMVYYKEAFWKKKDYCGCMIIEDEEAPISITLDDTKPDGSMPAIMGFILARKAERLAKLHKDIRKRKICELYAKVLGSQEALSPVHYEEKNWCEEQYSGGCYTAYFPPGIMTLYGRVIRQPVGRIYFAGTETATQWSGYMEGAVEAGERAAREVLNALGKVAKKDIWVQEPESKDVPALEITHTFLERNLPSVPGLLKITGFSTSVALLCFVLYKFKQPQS
In words: MAO inhibition in mouse brain slices after intraperitoneal injection: deamination of [14C]-5-hydroxytryptamine. The note with it: for inhibition of the MAO activity against 5-hydroxytryptamine (in words): in vivo; for ED50: effective dose for 50 % inhibition.
Excerpt: as §1, §2, §3

Assay [3] deals with T2, monoamine oxidase enzyme (Mus musculus, UniProt Q8BW75).
T2 construct: from tissue; host or cells: mouse brain slices (hypothalamus, thalamus, midbrain), ex vivo after i.p. dosing
T2 sequence (Q8BW75 1-520): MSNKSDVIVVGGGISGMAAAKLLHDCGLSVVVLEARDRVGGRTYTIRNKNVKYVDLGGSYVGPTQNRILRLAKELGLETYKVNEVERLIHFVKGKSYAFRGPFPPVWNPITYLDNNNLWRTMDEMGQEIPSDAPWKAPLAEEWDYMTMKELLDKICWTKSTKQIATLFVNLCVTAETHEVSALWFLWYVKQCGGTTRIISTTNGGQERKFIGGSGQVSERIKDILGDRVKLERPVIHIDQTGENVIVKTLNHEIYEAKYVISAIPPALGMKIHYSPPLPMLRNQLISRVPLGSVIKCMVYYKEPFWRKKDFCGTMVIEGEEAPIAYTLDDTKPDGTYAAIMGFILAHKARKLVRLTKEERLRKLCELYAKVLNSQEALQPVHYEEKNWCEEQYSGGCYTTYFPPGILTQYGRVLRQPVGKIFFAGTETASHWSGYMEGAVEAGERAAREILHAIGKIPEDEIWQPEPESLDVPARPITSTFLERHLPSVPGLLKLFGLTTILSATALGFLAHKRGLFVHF
In words: MAO inhibition in mouse brain slices after intraperitoneal injection: deamination of [3H]phenethylamine. To be noted: for inhibition at 4 mg/kg: dose 4 mg/kg intraperitoneal; for inhibition at 32 mg/kg: dose 32 mg/kg intraperitoneal; for ED50: effective dose for 50 % inhibition; for inhibition at 29 mg/kg: dose 29 mg/kg intraperitoneal.
Excerpt: as §1, §2
[…] The inhibition was expressed in percent and calculated on the total formation of acid and neutral products formed in the brain slices of animals treated with the test compounds or with saline.

Setting [4] is: mouse, ip, deamination of 5-hydroxytryptamine, 1 h after adm.
Where [5] appears, read: mouse, ip, deamination of phenethylamine, 1 h after adm.
Where [6] appears, read: mouse, ip, deamination of phenethylamine, 24 h after adm.
[7] abbreviates: comparison of ACS 104 with ACS 64.

Structures are written as SMILES.

For `C=C=CCN(C)Cc1ccccc1.Cl` [ACS 64, N-2,3-butadienyl--N-methylbenzylamine hydrochloride, reference compound], the ED50 with monoamine oxidase enzyme [1] is above 150 µmol/kg; at monoamine oxidase enzyme [2] (setting [4]), above 150 µmol/kg; at monoamine oxidase enzyme [3] (setting [5]), 50 µmol/kg. Besides, the “inhibition of the MAO activity against tyramine (in words)” value with monoamine oxidase enzyme [1] was “only weak inhibitors”. Further, the “inhibition of the MAO activity against 5-hydroxytryptamine (in words)” value against monoamine oxidase enzyme [2] (mouse) is recorded as “only weak inhibitors”. Moreover, the inhibition at 32 mg/kg on monoamine oxidase enzyme [2] (mouse, ip, deamination of 5-hydroxytryptamine, dose 32 mg/kg intraperitoneal, 1 h after adm.) was found to be 16 ± 2%; against monoamine oxidase enzyme [3] (setting [5]), 86 ± 3%; against monoamine oxidase enzyme [3] (setting [6]), 70 ± 1%. At monoamine oxidase enzyme [3] (setting [5]), at 4 mg/kg the inhibition was 31 ± 7%.
With `C=C=C(CN)Cc1ccccc1.Cl` [ACS 104, 2-benzyl-2,3-butadienamine hydrochloride], in the assay with monoamine oxidase enzyme [1] (setting [7]), the “potency relative to the prior art compound, MAO activity against tyramine” value was “somewhat, more potent than the prior art compound”. For the same compound, the 50% effective dose (ED50) was below 150 µmol/kg in the assay with monoamine oxidase enzyme [1], around 150 µmol/kg at monoamine oxidase enzyme [2] (setting [4]) and 16 µmol/kg at monoamine oxidase enzyme [3] (setting [5]). Also, the “inhibition of the MAO activity against tyramine (in words)” value in the assay on monoamine oxidase enzyme [1] is on record as “only weak inhibitors”. Also, the “potency relative to the prior art compound, MAO activity against 5-hydroxytryptamine” value at monoamine oxidase enzyme [2] (setting [7]) is “somewhat, more potent than the prior art compound”. For the same compound, the “inhibition of the MAO activity against 5-hydroxytryptamine (in words)” value against monoamine oxidase enzyme [2] (mouse) is “only weak inhibitors”. The inhibition at 29 mg/kg on monoamine oxidase enzyme [2] (mouse, ip, deamination of 5-hydroxytryptamine, dose 29 mg/kg intraperitoneal, 1 h after adm.) worked out at 48 ± 2%; at monoamine oxidase enzyme [3] (setting [5]), 92 ± 1%; against monoamine oxidase enzyme [3] (setting [6]), 39 ± 2%. For the same compound, the “potency relative to the prior art compound, inhibition of the MAO activity against phenethylamine” value at monoamine oxidase enzyme [3] (comparison of ED50-values of ACS 104 and ACS 64) is on record as “about three times as potent as the prior art compound”. Besides, the inhibition at 1 mg/kg against monoamine oxidase enzyme [3] (mouse, ip, deamination of phenethylamine, dose 1 mg/kg intraperitoneal, 1 h after adm.) turned out to be 19 ± 3%. Besides, 4 mg/kg produced 67 ± 2% inhibition against monoamine oxidase enzyme [3] (setting [5]).
